US20210030022A1, “NOVEL USE OF SUBSTITUTED CHROMAN-6-OLS” (DSM IP ASSETS B.V., priority 2018, published 2021)

Tests used:
[1] = Oxipres antioxidant efficacy value (EV) in fish meal; settings: Oxipres 70° C., 5 bar O2, equimolar to BHT; EV relative to BHT (EV=1)
Protocol: (§1) Oxidative stability was assessed using an Oxipres (Mikrolab Aarhus A/S, Hojbjerg, Denmark). The ML OXIPRES® is designed to monitor the oxidation of heterogeneous products. Consumption of oxygen results in a pressure drop which is measured by means of pressure transducers. The samples are heated to accelerate the process and shorten the analysis time (Mikrolab Aarhus 2012).
(§2) Sample weights were 50 g. They were loaded into the Oxipres vessels and placed inside the stainless-steel pressure vessel and sealed. The pressure vessels were purged with pure oxygen and filled to an initial oxygen pressure of 5 bar and maintained at 70° C. during measurement (D. Ying, L. Edin, L. Cheng, L. Sanguansri, M. A. Augustin, LWT—Food Science and Technology 2015, 62, 1105-1111: “Enhanced oxidative stability of extruded product containing polyunsaturated oils.”).
(§3) The oxygen pressure was recorded as function of time. After sample load and temperature rise the pressure in the device is increasing within 10 hours up to the starting pressure. Thereafter it is decreasing. Consequently, the starting pressure is considered as being the pressure after 10 hours. The analysis ends after 130 hours at 70° C. The oxygen consumption ‘O2’ of the tested sample is calculated as follows: […]
(§4) A factor of protection called ‘EV’ (Efficacy Value) was developed to quantify with a relative number (relative to BHT) the antioxidant effect of the tested candidates. EV was calculated as follows:
(§5) EV, being relative to BHT (3,5-di-tert-butyl-4-hydroxy-toluene) (EV=1), makes it possible to compare the antioxidant compounds in a defined feed application.
(§6) Each of the compounds of formulae (1) to (6) were mixed into each matrix 1, 2 or 3 (pet food, poultry meal, fish meal) in an equimolar ratio compared to BHT. Batches of 200 g feed were produced in order to handle a minimum of 30 mg of antioxidant. First, a 1% pre-dilution of the antioxidant with the feed material was made. Then this pre-dilution was added to the final batch, mixed, sieved (1.25 mm sieve) and mixed using a turbula mixer. Thereafter 55 g of the final batch were packed into polyethylene bags, and stored at 4° C. until start of the Oxipres assay. Spare sample were stored at 4° C. Compound of formula (3) was measured in all three matrices. Compound of formula (1) was measured in matrix 1 and 2. Compound of formula (2) was measured in matrix 2. Compounds of formulae (4), (5) and (6) were measured in matrix 3. An efficacy value 0.7 has been considered as acceptable, an efficacy value ≥ the efficacy value of alpha-tocopherol as good, and an efficacy value ≥ the efficacy value of BHT as very good.

[2] = Oil Stability Index (OSI) in fish oil, Example 12; settings: for OSI / Protection Factor (%): FG30TG fish oil
Protocol: (§7) The compounds of formulae (4), (6), (8) and (9) were evaluated primarily for their oxidative stability by the Oil Stability Index (OSI) measurements. Two different levels of these antioxidants (0.5 and 2 mg/g) were used in 5 g of natural fish oil (Product code: FG30TG) and used in the Oxidative Stability Instrument at 80° C. with the air flow rate of 40 psi. The solubility of different amounts and types of antioxidants used in OSI was checked before and after the application.
The compounds of formulae (6) and (9) (see Table 14 below), compound of formula (4) (see Table 15 below) and compound of formula (8) (see Table 16 below) were used at different times in the Oxidative Stability instruments under similar operational conditions used for fish oil evaluations. MNT and the oil without any antioxidants (“Blank”) were always used to compare. Also, the synergistic effect of only oil soluble compounds with ascorbyl palmitate was determined using the OSI values. The polymers generated at the end of the experiment were determined by LC (LC=liquid chromatography).
The Protection Factors (PF) for each compound in oil were calculated in percentage as: […]

[3] = Oil Stability Index (OSI) in fish oil, Example 13; settings: for antioxidant activity (OSI) in fish oil compared with MNT: Example 13, 0.5 and 2 mg/g; for OSI: Table 28, FG30TG fish oil, 80° C.; for Protection Factor (%): Table 34, fish oil (80° C.)
Protocol: The compounds of formulae (3) and (7) were used in both fish and algal oils to see their antioxidant effect in these oils. Antioxidant effect was determined using mainly the Oil Stability Index (OSI). Two concentration levels were used: 0.5 mg/g (low level) and 2 mg/g (high level), respectively, have been added to 5 g of oil and used in the Oxidative Stability Instrument operated at 80° C. with the continuous air flow rate at ˜40 psi. All samples were run in duplicate. The Protection Factors (PF) for each compound, as percentage, in oil were calculated as, [formula]

[4] = Oxipres antioxidant efficacy value (EV) in poultry meal; settings: Oxipres 70° C., 5 bar O2, equimolar to BHT; EV relative to BHT (EV=1)
Protocol: as §1, §2, §3, §4, §5, §6

Solubility in fish oil = format: physicochemical
Protocol: as §7, with “application. […]” for “application.”

[5] = Oil Stability Index (OSI) in crude algal oil, Example 13; settings: for OSI: Table 33, crude algal oil (contained about 1.6 mg/g MNT prior to use), 80° C.; for Protection Factor (%): Table 35, crude algal oil (80° C.)
Protocol: The compounds of formulae (3) and (7) were used in both fish and algal oils to see their antioxidant effect in these oils. Antioxidant effect was determined using mainly the Oil Stability Index (OSI).
Two concentration levels were used: 0.5 mg/g (low level) and 2 mg/g (high level), respectively, have been added to 5 g of oil and used in the Oxidative Stability Instrument operated at 80° C. with the continuous air flow rate at ˜40 psi. All samples were run in duplicate. The Protection Factors (PF) for each compound, as percentage, in oil were calculated as,
The Oil Stability Indices (OSI) of crude algal oil with levels of 0.5 mg/g and 2 mg/g of compounds of formulae (3) or (7) are shown in Table 33.

[6] = Storage stability in fish oil (PV, p-AV), Example 13; settings: storage at 25° C.
Protocol: A storage stability study was performed to compare the variation of primary oxidation products, the hydroperoxides, generated during oxidation, measured in terms of peroxide value (PV) and the secondary oxidation products which were measured and determined as anisidine reactive substances or p-anisidine value (p-AV) of oil samples containing these compounds.
The two different concentrations of compounds of formulae (3) and (7) were used for the storage stability study. Each compound and MNT were added, each individually, to 40 g of fish oil samples in 60 ml amber bottles at 0.5 mg/g and 2 mg/g levels, thoroughly mixed and stored at ambient temperature for 19 days. All sample bottles were stored open to air, away from light. […] Peroxide values (PV) and p-anisidine values (p-AV) were determined at different times for 19 days.

[7] = Storage stability in fish oil (PV, p-AV, CD), Example 12; settings: FG30TG, 2 mg/g
Protocol: Tables 25, 26 and 27 show the PV (peroxide value), p-AV (p-anisidine value) and CD (Conjugated dienoic acid %) of the fish oil samples stabilized with compounds of formulae (6), (8) and (9), respectively.
For the storage stability study oil soluble compounds were used in fish oil at 2 mg/g level only. […] There was no considerable variation in p-AV and CD (Tables 26-27) during the storage.

Q: Which “EV in Fish meal” value [1] does the source give for `Cc1c(C)c2c(c(C)c1O)CCC(C)(C)O2` [Compound of formula (5), 2,2,5,7,8-pentamethyl-chroman-6-ol] here?
A: Its value is 1.08.

Q: Which “EV in Fish meal” value [1] does the source give for `COc1cc2c(cc1O)CCC(C)(C)O2` [Compound of formula (4), 7-Methoxy-2,2-Dimethyl-6-Chromanol] here?
A: Its value is 1.05.

Q: And the “OSI” value ([2]; Table 15, 80° C., 0.5 mg/g)?
A: Its value is 4.98 h.

Q: What about the “OSI” value ([2]; Table 15, 80° C., 2 mg/g) of the same molecule?
A: Its value is 5.95 h.

Q: And the “Protection Factor (%)” value ([2]; Table 18, 0.5 mg/g)?
A: Its value is 4.74%.

Q: What about the “Protection Factor (%)” value ([2]; Table 18, 2 mg/g) of the same molecule?
A: Its value is 25.26%.

Q: And the “antioxidant effect (OSI) in fish oil compared with MNT” value ([2]; fish oil, Example 12, same level of MNT)?
A: The value was “lower OSI values than those of MNT”.

Q: Which “antioxidant activity (OSI) in fish oil compared with MNT” value [3] does the source give for “6-Hydroxy-7-Methoxy-2,2-Dimethyl-Chroman-4-One [Compound of formula (10)]” here?
A: Its value is “comparable antioxidant activity to MNT”.

Q: Which “EV in poultry meal” value [4] does the source give for `CC1CCc2cc(O)ccc2O1` (stereo not shown) [Compound of formula (2), 2-methyl-chroman-6-ol] here?
A: The value was 1.09.

Q: What does the source list for `CC(C)CCCC1(C)CCc2cc(O)ccc2O1` (stereo not shown) [Compound of formula (7), 2-(4-methylpentyl)-2-methyl-chroman-6-ol]?
A: OSI ([3]; 0.5 mg/g): 6.15 h; OSI ([3]; 2 mg/g): 7.23 h; Protection Factor (%) ([3]; 0.5 mg/g): 23%; Protection Factor (%) ([3]; 2 mg/g): 44.5%; antioxidant activity (OSI) in fish oil compared with MNT [3]: comparable in activity with MNT; Solubility in oil (Solubility in fish oil; fish oil, 0.5 and 2 mg/g, mixed around 40° C. to dissolve completely): not readily soluble in oil; OSI ([5]; 0.5 mg/g): 16.38 h; OSI ([5]; 2 mg/g): 18.53 h; Protection Factor (%) ([5]; 0.5 mg/g): 9.2%; Protection Factor (%) ([5]; 2 mg/g): 23.5%; Peroxide values (PV, meq/kg) ([6]; 0.5 mg/g level, 1 day): 1 meq/kg; p-Anisidine value (p-AV) ([6]; 0.5 mg/g level, 1 day): 9.5; Peroxide values (PV, meq/kg) ([6]; 0.5 mg/g level, 5 days): 2 meq/kg; p-Anisidine value (p-AV) ([6]; 0.5 mg/g level, 5 days): 9.8; Peroxide values (PV, meq/kg) ([6]; 0.5 mg/g level, 8 days): 6.4 meq/kg; p-Anisidine value (p-AV) ([6]; 0.5 mg/g level, 8 days): 11.1; Peroxide values (PV, meq/kg) ([6]; 0.5 mg/g level, 14 days): 11.8 meq/kg; p-Anisidine value (p-AV) ([6]; 0.5 mg/g level, 14 days): 12.4; Peroxide values (PV, meq/kg) ([6]; 0.5 mg/g level, 19 days): 19.5 meq/kg; p-Anisidine value (p-AV) ([6]; 0.5 mg/g level, 19 days): 12.9; Peroxide values (PV, meq/kg) ([6]; 0.5 mg/g level, Initial): 1 meq/kg; p-Anisidine value (p-AV) ([6]; 0.5 mg/g level, Initial): 9.4; Peroxide values (PV, meq/kg) ([6]; 2 mg/g level, 1 day): 1 meq/kg; p-Anisidine value (p-AV) ([6]; 2 mg/g level, 1 day): 9.3; Peroxide values (PV, meq/kg) ([6]; 2 mg/g level, 5 days): 1.9 meq/kg; p-Anisidine value (p-AV) ([6]; 2 mg/g level, 5 days): 9.3; Peroxide values (PV, meq/kg) ([6]; 2 mg/g level, 8 days): 8.2 meq/kg; p-Anisidine value (p-AV) ([6]; 2 mg/g level, 8 days): 11.1; Peroxide values (PV, meq/kg) ([6]; 2 mg/g level, 14 days): 16.4 meq/kg; p-Anisidine value (p-AV) ([6]; 2 mg/g level, 14 days): 11.9; Peroxide values (PV, meq/kg) ([6]; 2 mg/g level, 19 days): 27.3 meq/kg; p-Anisidine value (p-AV) ([6]; 2 mg/g level, 19 days): 12.9; Peroxide values (PV, meq/kg) ([6]; 2 mg/g level, Initial): 1 meq/kg; p-Anisidine value (p-AV) ([6]; 2 mg/g level, Initial): 9.4

Q: Which results are given for `CC(C)CCCC(C)CCCC1(C)CCc2cc(O)ccc2O1` (stereo not shown) [Compound of formula (8), 2-(4,8-dimethylnonyl)-2-methyl-chroman-6-ol]?
A: Solubility in fish oil, 80° C. (Solubility in fish oil; 0.5 mg/g): soluble; Solubility in fish oil, Room temp. (Solubility in fish oil; 0.5 mg/g): soluble; Solubility in fish oil, 80° C. (Solubility in fish oil; 2.0 mg/g): soluble; Solubility in fish oil, Room temp. (Solubility in fish oil; 2.0 mg/g): soluble; OSI ([2]; Table 16, 80° C., 0.5 mg/g): 5.48 h; OSI ([2]; Table 16, 80° C., 2 mg/g): 5.96 h; Protection Factor (%) ([2]; Table 19, 0.5 mg/g): 15.42%; Protection Factor (%) ([2]; Table 19, 2 mg/g): 25.89%; OSI ([2]; Table 21, 2 mg/g + 0.5 mg/g of AP (ascorbyl palmitate)): 7.03 h; OSI ([2]; Table 21, 2 mg/g, without AP): 6.58 h; Protection Factor (%) ([2]; Table 23, 2 mg/g + 0.5 mg/g of AP): 130%; Protection Factor (%) ([2]; Table 23, 2 mg/g, without AP): 145%; CD (conjugated dienoic acid in %) ([7]; 4 days): 0.6%; PV (peroxide value) ([7]; 4 days): 1.6; p-AV (p-anisidine value) ([7]; 4 days): 10.3; CD (conjugated dienoic acid in %) ([7]; 6 days): 0.6%; PV (peroxide value) ([7]; 6 days): 1.8; p-AV (p-anisidine value) ([7]; 6 days): 9.8; CD (conjugated dienoic acid in %) ([7]; 8 days): 0.2%; PV (peroxide value) ([7]; 8 days): 3.1; p-AV (p-anisidine value) ([7]; 8 days): 10; CD (conjugated dienoic acid in %) ([7]; 11 days): 0.7%; PV (peroxide value) ([7]; 11 days): 3.7; p-AV (p-anisidine value) ([7]; 11 days): 10.4; CD (conjugated dienoic acid in %) ([7]; 13 days): 0.7%; PV (peroxide value) ([7]; 13 days): 8.7; p-AV (p-anisidine value) ([7]; 13 days): 10.6; CD (conjugated dienoic acid in %) ([7]; 15 days): 0.8%; PV (peroxide value) ([7]; 17 days): 11.5; p-AV (p-anisidine value) ([7]; 17 days): 11; CD (conjugated dienoic acid in %) ([7]; Initial): 0.7%; PV (peroxide value) ([7]; Initial): 0.9; p-AV (p-anisidine value) ([7]; Initial): 9.9
